Measurements from patent US20240342138A1, “MICROTUBULE TARGETING AGENTS” (BPGbio, Inc., priority 2023, published 2024).

What was measured:
[1] = system: C6 rat glioma cells; assay: Orthotopic syngeneic C6 glioma model; type: in vivo, Sprague Dawley rats
Excerpt: (§1) FIG. 14A-14E show the efficacy of Compound 1 in glioblastoma cell lines in vitro and in a glioblastoma rat model (C6). A) In vitro potency of Compound 1 in four different glioblastoma cell lines as evaluated by Realtime-Glo™ assay (C6, and U87 cells) or ATPlite 1Step™ Perkin Elmer (performed by NTRC Oncolines; T98G and A-172 cells). B) Study design overview: C6 rat glioma cells (3×10^5) were implanted into the right entorhinal cortex/subiculum region of male Sprague Dawley rats and tumor burden was assessed 14 days post inoculation using MRI and animals randomized into […] (4) groups (vehicle control, 5 mg/kg, 10 mg/kg, and 20 mg/kg Compound 1) with 4 animals per group. […] C) Body weights were measured every two days. […]
(§2) Glioblastoma (GBM) is the most common and highly malignant form of primary brain tumor with a poor prognosis despite advances in treatments. […] Accordingly, the in vitro potency of Compound 1 was examined in four different glioblastoma cell lines as evaluated by Realtime-Glo™ assay (C6, and U87 cells) or ATPlite 1Step™ Perkin Elmer (performed by NTRC Oncolines; T98G and A-172 cells). […] Therefore, the in vivo tumor activity of Compound 1 was next assessed in Sprague Dawley rats implanted with C6 rat glioma cells into the right entorhinal cortex/subiculum region (AP: −7 mm; ML: 4.5 mm, DV: 5 mm). […]

[2] = system: T98G cells; assay: In vitro potency in glioblastoma cells, ATPlite 1Step (NTRC Oncolines); type: cell-based; details: Homo sapiens, FIG. 14A, read-out: In vitro potency (anti-cancer activity)
Excerpt: as §1, §2

[3] = system: A-172 cells; assay: as above; type: cell-based; details: Homo sapiens, FIG. 14A, read-out: In vitro potency (anti-cancer activity)
Excerpt: as §1, §2

[4] = Blood brain barrier permeability (PVDF membrane coated with porcine brain polar lipid extract); type: in vitro ADME
Method: Preparation of Donor Solution a) 0.2 mM working solution was prepared by diluting 10 mM stock solution with DMSO. b) 10 μM donor solution (5% DMSO) was prepared by diluting 20 μL of working solution with 380 μL PBS. 2) 150 μL of 10 μM donor solutions to each well of the donor plate, whose PVDF membrane was precoated with 5 μL of 1% brain polar lipid extract (Porcine)/dodecane mixture. Duplicates were prepared. 3) 300 μL of PBS was added to each well of the PTFE acceptor plate. 4) The donor plate and acceptor plate were combined together and incubated for 4h at room temperature with shaking at 300 rpm. 5) Preparation of TO sample: 20 μL donor solution was transferred to new well followed by the addition of 250 μL PBS (DF: 13.5), 130 μL ACN (containing internal standard) as TO sample. 6) Preparation of acceptor sample: The plate was removed from incubator. 270 μL solution was transferred from each acceptor well and mixed with 130 μL ACN (containing internal standard) as acceptor sample. 7) Preparation of donor sample: […] was transferred from each donor well and mixed with 250 μL PBS (DF: 13.5), 130 μL ACN (containing internal standard) as donor sample. 8) Acceptor samples and donor samples were all analyzed by LC/MS/MS.

[5] = system: COLO205 cells; assay: In vitro potency, ATPlite 1Step (NTRC Oncolines); type: cell-based; details: Homo sapiens, COLO 205
Method: FIG. 11A-11E show the efficacy of Compound 1 in a colorectal cancer xenograft model (COLO205). A) In vitro potency of Compound 1 in COLO205 cells as evaluated by ATPlite 1Step™ Perkin Elmer (performed by NTRC Oncolines). B) COLO205 cells were implanted subcutaneously in nude mice and tumors were allowed to grow to a volume of 210 mm3 followed by randomization of animals into three (3) groups (vehicle control, 75 mg/kg, 150 mg/kg Compound 1) with 12 animals per group. A Compound 1 solid dispersion was prepared prior to each dosing and administered by oral gavage two times a day (BID). Mean tumor volume of each group over time and the growth of tumor in each individual animal was graphed. For each individual animal of […] group TGI (%) was calculated based on the tumor growth inhibition of individual tumor at each given day of the study compared to the average of the group for that given day of the study. P-values were calculated using two-tailed distribution and two-sample equal variance (homoscedastic) for each group treated with Compound 1 for each given day of the study in reference to vehicle control. […] The level of two biomarkers, pHH3 and CCNB1 in each tissue was measured and graphed as the Min-to-Max plot and scatter plot of the level of each biomarker. […] E) Body weight of each individual animal was measured on each day of the study and graphed using Graphpad Prism. […]

**Q.** Which results are given for COc1ccccc1-c1nc(CNC(=O)c2ccccc2OC(F)F)n[nH]1 [Compound 1, 2-(difluoromethoxy)-N-[[5-(2-methoxyphenyl)-1H-1,2,4-triazol-3-yl]methyl]benzamide]?
**A.** Animals still alive at day 60 post-treatment initiation ([1]; 2 in each treatment group (5, 10, 20 mg/kg)): six; MRI imaging of surviving animals ([1]; FIG. 14E): reduction in tumor size and tumor fragmentation; IC50 [2]: 39 nM; IC50 [3]: 48 nM; Permeability ([4]; 10 μM, 4 h): highly permeable and High; Papp at 4 h, 10 μM ([4]; PAMPA, read-out: Mean Pe): 6.76 ×10⁻⁶ cm/s; recovery at 4 h, 10 μM ([4]; pig, not told): 85.8%; IC50 ([5]; COLO205): 67 nM; Emax ([5]; COLO205, in vitro, read-out: Maximum effect (%)): 95%
